Reference: the NIST ThermoML archive (doi:10.1016/j.jct.2017.09.022)

Details: 101.33 kPa, Crystal, Small (less than 1 g) adiabatic calorimetry

C[C@@H](O)[C@H](N)C(=O)O [L-threonine]
Details	molar entropy [J/K/mol]
5 K	0.02162
10 K	0.1746
15 K	0.6735
20 K	1.713
25 K	3.326
30 K	5.488
35 K	8.065
40 K	10.89
45 K	13.89
50 K	17.13
60 K	23.7
70 K	30.6
80 K	37.33
90 K	43.98
100 K	50.55
110 K	57.04
120 K	63.44
130 K	69.68
140 K	75.91
150 K	82.06
160 K	88.05
170 K	93.95
180 K	99.86
190 K	105.59
200 K	111.33
210 K	116.9
220 K	122.47
230 K	128.04
240 K	133.45
250 K	138.85
260 K	144.26
270 K	149.58
280 K	154.82
290 K	160.14
298.15 K	164.38
300 K	165.29
310 K	170.53
320 K	175.6
330 K	180.67
340 K	185.75
350 K	190.73
360 K	195.72
370 K	200.71
